# Test results taken from a melting point compilation (Tetko et al.; mined from patent text by program, amines drawn as free bases though some values may be those of a salt).
row,melting point,Compound
1,115 to 116 °C,COC(=O)/C=C/c1occc(=O)c1OCC(=O)OC(C)(C)C
2,108 to 110 °C,CC(C)c1cccc(C(C)C)c1NC(=O)C(C)(C)CCCOc1ccc2c(c1)C=C(c1nccn1C)C(CCc1ccccc1)O2 (racemic)
3,63 to 64 °C,CCN(CC)C(=O)c1ccc(OCOC)cc1-c1ccccc1
4,194 to 196 °C,O=C1N(C(c2ccccc2)c2ccccc2)c2cc(F)ccc2C12COc1cc3c(cc12)CCO3 (stereo not drawn)
5,142 to 144 °C,CCCc1c(OCCCOc2ccc(C(=O)CCC(=O)O)cc2F)ccc(C(C)=O)c1O
6,170 to 174 °C,O=C1NCCC[C@@H]1NS(=O)(=O)c1cc(F)cc(F)c1
7,214 to 217 °C,CCOc1csc2c(=O)c(SC)cn(C)c12
8,180 °C,CC(C)(C)c1cc(CCc2ccccc2NC(=O)NCCc2ccccn2)cc(C(C)(C)C)c1O
9,188 to 189 °C,CCOC(=O)C1(F)C(=O)NC(=O)NC1ON=C1CCC1 (stereo not drawn)
10,138 to 146 °C,O=C(O)CCc1cc2cc(OC(F)(F)F)ccc2n1S(=O)(=O)c1ccccc1
11,164 to 169 °C,O=C1NC(=O)c2c(Sc3ccc(Cl)cc3)c(Sc3ccc(Cl)cc3)c(Sc3ccc(Cl)cc3)c(Br)c21
12,197 to 199 °C,COc1ccc(-c2n[nH]c3c2C(O)c2ccccc2-3)cc1OC (stereo not drawn)
13,102 to 103 °C,CCOC(=O)c1cc(C)n(-c2cccnc2)c1-c1ccccc1
14,120 to 124 °C,COc1ccc(N2CCN(c3c(C)c(C)c4c(c3C)CC(C)(COC=O)O4)CC2)cc1 (stereo not drawn)
15,95 to 105 °C,CON(C(=O)c1cn(C)nc1C(F)F)C(C)C1CCC(C)=CC1(C)C (stereo not drawn)
16,101 to 102 °C,COCCNC(=O)c1cccc(-c2cccc3nc(Cc4cccc(C(F)(F)F)c4)sc23)c1
17,64 to 67 °C,O=C(O)CCCCCc1nn(-c2ccc(F)cc2)c2c1CCC2
18,81 °C,COc1ccc(Nc2nc(NC3CCNCC3)nc(N(C)N3CCCCCC3)n2)cc1Cl
19,194 to 195 °C,O=C(Nc1ccc(C(F)(F)F)cc1)N1N=C2c3ccc(C(F)(F)F)cc3OC3CCCC1C23 (stereo not drawn)
20,102 to 104 °C,Nc1ccc2nc(CN3CCCC3)ccc2c1
21,300 °C,N=C(NO)c1ccc(N)nc1
22,162 to 164 °C,COc1ccc(N2CCN(c3c(C)c(C)c4c(c3C)OC(C)(C)C4(O)c3ccc(C)cc3)CC2)cc1 (stereo not drawn)
23,161 °C,CCCC1Cc2c3c(c(C)c(C)c2C1O)OC(C(=O)O)C3 (stereo not drawn)

row,melting point,Compound
1,49 to 51 °C,O=C(CCc1ccccc1)CN1C(=O)CC1S(=O)c1ccccc1 (mixture of isomers)
2,95 to 97 °C,COc1ccc(S(=O)(=O)NCCCO)c(OC)c1OC
3,57 to 58 °C,CCCOc1c(C=O)c(=O)n(C)c(=O)n1C
4,241 to 243 °C,COc1ccc(C2CCN(C(=O)Nc3ccc4cc(CN5CCCC5)cnc4c3)CC2)cc1
5,125 to 126 °C,CC1=CC(C)(C)N2CCCc3c(O)ccc1c32
6,153 to 155 °C,COC(=O)c1c(O)c2ccccc2n1-c1ccc(OC)cc1
7,65 to 67 °C,CCCCCCCCCCCCCCCCCCCCC(CCCCCCCCCCCCCC)C(=O)O (stereo not drawn)
8,69 to 70 °C,CCCc1ccc(C2c3c(C)cc(C)c(C)c3OC2(C)C)cc1 (stereo not drawn)
9,185 to 187 °C,O=c1c(CCO)cnc2c3ccccc3ccn12
10,206 to 210 °C,COc1ccc2c(c1F)C(=O)N(Nc1ccncc1)C2=O
11,78 to 79 °C,CC(=O)SCC1(C)C(=O)N2CCCC(C(=O)OC(C)(C)C)N2C1=O (stereo not drawn)
12,188 to 189 °C,O=S(=O)(Cc1ccccc1)c1nc2ccc(O)cc2s1
13,201 to 202 °C,Cc1c(C(=O)Nc2ccc(N3CCOCC3)c(C#N)c2)cnn1-c1ccc(F)cc1
14,201 to 202 °C,COc1cc2oc(=O)c(C)c(C)c2cc1OCCN1CCN(c2cccc3[nH]ccc23)CC1
15,244 °C,CCCCCCCCCCCCOc1ccc(O)c(C(=O)NNC(=O)c2ccccc2O)c1
16,77 to 78 °C,CCOC(=O)c1ncsc1-c1cccc(I)c1
17,84 to 85 °C,COc1ccc(CN2Cc3cc(OC)c(O)cc3C(OC)C2)cc1 (stereo not drawn)
18,113 to 116 °C,O=[N+]([O-])c1ccc(Cl)c(C=NNc2c(Cl)cc(Cl)cc2Cl)c1
19,15 to 20 °C,CCCN(CCC)C(=O)n1cnc(S(=O)C(C)C)n1 (stereo not drawn)
20,102 to 104 °C,COc1ncc(CN2C(=O)C3(COc4cc5c(cc43)OCCO5)c3ccccc32)cn1 (stereo not drawn)
21,184 to 186 °C,Cc1nc2cccc(OC3CCN(C(=O)C(C)C)CC3)c2c(N)c1C(=O)O
22,51 to 53 °C,CC1(C)CC=C(S(=O)(=O)c2ccccc2)CC1
23,80 °C,Cn1ccc2c(C(=O)c3ccccc3O)cccc21

row,melting point,Compound
1,82 °C,CCOC(=O)N1CCC(O)(CN)CC1
2,108 to 112 °C,CC(=O)Nc1cccc(OC(Cn2ccnc2)c2ccc(Cl)cc2Cl)c1 (stereo not drawn)
3,230 to 232 °C,Cc1ccc(-c2cc(N3CCCCC3)c(C#N)c3c2-c2ccccc2C3=O)cc1
4,53.5 to 54.5 °C,CCCCCCCCCCCCCCCCC(O)CBr (stereo not drawn)
5,71 °C,O=C1c2ccccc2C(OCCCl)N1c1ccccc1 (stereo not drawn)
6,60 to 62 °C,Cc1ccccc1CC[C@H]([C@H](C)O)n1cnc(C(N)=O)c1
7,176 to 178 °C,CCn1ncc2c(NCC3CCCCC3)c3cc(OCCN4CCOCC4)ccc3nc21
8,163 to 165 °C,Cc1ccc(C(=O)NN(C(=O)c2cc(Cl)sc2Cl)C(C)(C)C)cc1
9,188 to 189 °C,Cc1ccc(C(=O)NCc2ccc(Br)cc2F)c(OCC(=O)O)c1
10,171 to 173 °C,COc1ccc(CC(C(O)CCC(C#N)(c2ccc(OC)c(OC)c2)C(C)C)[N+](=O)[O-])cc1OC (stereo not drawn)
11,183 to 184 °C,Cc1ccc(NC(=O)Nc2ccc(Oc3cc(Cl)ncn3)cc2)cc1C(F)(F)F
12,178 to 180 °C,O=C(NC(=O)c1c(F)cccc1F)Nc1cc(Cl)c(OC(F)(F)C(F)Cl)c(Cl)c1 (stereo not drawn)
13,108 to 109 °C,CN1C(=S)Cc2ccccc21
14,130 to 132 °C,COc1ccc2c(c1OC)CC1C(=O)N(Cc3ccccc3)C(=O)C21 (stereo not drawn)
15,128 to 130 °C,O=C1Cc2c(Cl)cccc2Sc2c(F)cccc21
16,139 to 140 °C,Cc1noc(C)c1NCC#CI
17,167 to 168 °C,Oc1ccc2c(-c3cccnc3)coc2c1
18,147 to 149 °C,O=C(NC(NC(=S)Nc1cccnc1)C(F)(F)F)c1ccc(Cl)cc1 (stereo not drawn)
19,108 °C,CCc1nc2c(C)cc(C)nc2n1-c1ccc(CC(C)OC(=O)NS(=O)(=O)c2ccc(C)cc2)cc1 (stereo not drawn)
20,201 to 202 °C,Cc1nc2c3c(ccc2n1C)C(=O)CC(c1ccccc1)O3 (stereo not drawn)
21,209 to 210 °C,NC1=CC(=O)CC(c2cccc(Cl)c2Cl)C1 (stereo not drawn)
22,174 to 176 °C,O=S1(=O)c2ccccc2Oc2cc(F)ccc21
23,137 to 139 °C,CC(C(=O)O)c1ccc(-c2ccc(Br)cc2F)cc1 (stereo not drawn)

row,Compound,melting point
1,c1ccc(CC2CNCCN2)cc1 (racemic),80 to 81 °C
2,CCOC(=O)Nc1nc(C)c(-c2nc3ccccc3c(=O)n2-c2cccc(Cl)c2)s1,262 to 263 °C
3,OCc1ccc(-c2coc(-c3cn([C@H]4CN5CCC4CC5)nn3)c2)cc1,202 °C
4,COc1ccc(C2(c3ccc(OC)cc3)CCN(CC[C@@H]3C=C4c5cccc6[nH]cc(c56)C[C@H]4N(C)C3)CC2)cc1,184 to 187 °C
